Test results from US12383579B2, “Materials and methods of using an inhibitor of plasminogen activation to treat anastomotic leak” (THE UNIVERSITY OF CHICAGO, priority 2018, dated 2025).
“Also recorded” adds a separate entry of the source.

System: FITC-labeled PLG binding to E. faecalis V583 cell surface
Experiment: Flow cytometric evaluation of FITC-PLG binding to E. faecalis
Parameters: species or system Enterococcus faecalis
Settings: for geometric mean fluorescence intensity of cells (surface-bound FITC-PLG): 1768 in the absence of TXA
Method: Flow cytometric evaluation of PLG binding. PLG binding to the bacterial surface was measured as previously described, with minor modifications (52′). Bacteria were grown overnight in TY. Cultures were diluted to a final density of roughly 8×10^6 CFU/mL. […] Cells were pelleted, washed three times with PBS, and resuspended. Fluorescence was analyzed using an Imagestream ISX flow cytometer. Enterococci were detected using log-forward and log-side scatter dot plots, and a gating region was set to exclude debris and aggregates of bacteria. Bacteria were analyzed for FITC-range fluorescence using log-scale amplification, of which the geometric mean fluorescence intensity was recorded as a measure for PLG binding. FITC-range fluorescent signal was confirmed by light and fluorescent microscopy of each event.
Flow cytometry was performed after incubation of V583 with FITC-labeled PLG as before. 80.9% of cells reached a subjectively determined threshold for surface-bound FITC-PLG. […] The effect was concentration-dependent and statistically significant (FIG. 37D).

**Q.** Which results are given for `NC[C@H]1CC[C@H](C(=O)O)CC1` [TXA, tranexamic acid]?
**A.** geometric mean fluorescence intensity of cells (surface-bound FITC-PLG) (2 mM TXA): 936; geometric mean fluorescence intensity of cells (surface-bound FITC-PLG) (10 mM TXA): 77; surface binding of FITC-PLG by E. faecalis (flow cytometry and single-cell microscopy): decrease in surface binding of FITC-PLG; also recorded: Fluorescent signal was not present
